A word on the pIC50: it is the negative decadic logarithm of the IC50, by convention in mol/L.

Experimental findings from US8551984B2, “Aminopyrimidines as SYK inhibitors” (Merck Sharp & Dohme Corp., priority 2009, dated 2013) are described below.

Molecules are shown by their SMILES. pIC50: −log10 of the molar value.

One test deals with recombinant human SYK (GST-hSYK fusion protein) (Homo sapiens, UniProt P43405). Briefly: biochemical. The conditions noted are these: RHSYK Activity, Table 54A.
Excerpt: Homogeneous Time-Resolved Fluorescence (HTRF) Assay for the Recombinant Human SYK Enzyme:
As for `Cc1cc(Nc2nccc(C(F)(F)F)n2)cc(-c2cnc(C3(O)CCN(C(=O)C(O)C(F)(F)F)CC3)s2)c1` (racemic) [Example 54A-60], the pIC50 was greater than 7.00.

The test is the same for the next values; noted with them: Syk IC50, HTRF, recombinant human GST-SYK.
For `Cc1cc(Nc2nccc(C)n2)cc(-c2cnc([C@@]3(O)CC[C@H](C(=O)O)C(C)(C)C3)s2)c1`, the pIC50 is 9.00.

The same test, now with this note: rhSYK Activity (IC50), recombinant human GST-SYK 5 pM, ATP 25 μM, biotinylated substrate peptide 250 nM, HTRF, 10-dose titration.
In the case of `Cc1cc(Nc2nccc(OC3CCC(O)CC3)n2)cc(-c2cnc(C(C)(O)C(F)(F)F)s2)c1` (mixture of isomers) [Example 96, 4-{[2-({3-methyl-5-[2-(1,1,1-trifluoro-2-hydroxypropan-2-yl)-1,3-thiazol-5-yl]phenyl}amino)-pyrimidin-4-yl]oxy}cyclohexanol], the pIC50 is greater than 7.00.

On to `Cc1cc(Nc2nccc(C(F)(F)F)n2)cc(-c2cnc([C@@H](O)[C@H](O)c3ccc(C(=O)O)cc3)s2)c1` (relative stereo) [Example 146, 4-{(Cis)-1,2-dihydroxy-2-[5-(3-methyl-5-{[4-(trifluoromethyl)pyrimidin-2-yl]amino}phenyl)-1,3-thiazol-2-yl]ethyl}benzoic acid], for which the pIC50 is greater than 7.00.

Consider `Cc1cc(Nc2nccc(C(F)(F)F)n2)cc(-c2cnc(C3CCC(C(N)=O)C(C)(C)C3)s2)c1` (single isomer, unassigned) [154(a), 2,2-Dim ethyl-4-[5-(3-methyl-5-{[4-(trifluoromethyl)pyrimidin-2-yl]amino}phenyl)-1,3-thiazol-2-yl]cyclohexanecarboxamide], for which the pIC50 is greater than 7.00.

Turning to `Cc1cc(Nc2nccc(C(F)(F)F)n2)cc(-c2cnc(C3(O)CCNC(=O)CC3O)s2)c1` (single isomer, unassigned) [161(B), [cis]-4,5-dihydroxy-5-[5-(3-methyl-5-{[4-(trifluoromethyl)pyrimidin-2-yl]amino}phenyl)-1,3-thiazol-2-yl]azepan-2-one], the pIC50 was greater than 7.00.

For the compound `Cc1cc(Nc2nccc(C(F)(F)F)n2)cc(-c2cnc(C3(O)CCC(=O)NCC3O)s2)c1` (single isomer, unassigned) [161(C), [cis]5,6-dihydroxy-5-[5-(3-methyl-5-{[4-(trifluoromethyl)pyrimidin-2-yl]amino}phenyl)-1,3-thiazol-2-yl]azepan-2-one], the pIC50 was greater than 7.00.

`Cc1cc(Nc2nccc(C(F)(F)F)n2)cc(-c2cnc(CNC(CO)C(C)O)s2)c1` (single isomer, unassigned) [Example 88A-43]: the pIC50 is greater than 7.00.

Consider `Cc1cc(Nc2nccc(C(C)O)n2)cc(-c2cnc(C3(O)CCC(C(=O)O)C(C)(C)C3)s2)c1` (single isomer, unassigned) [Example 100A-14], for which the pIC50 is greater than 7.00.

For the compound `Cc1cc(Nc2nccc(C(O)C3CC3)n2)cc(-c2cnc(C3(O)CCC(C(=O)O)C(C)(C)C3)s2)c1` (single isomer, unassigned) [Example 100A-18], the pIC50 was greater than 7.00.

Still in this test, the particulars now being: rhSYK Activity, Table 10, Formula A.
On to `Cc1cc(Nc2nccc(C(C)C)n2)cc(-c2cnc(C3(O)CCNC(=O)CC3)s2)c1` (single isomer, unassigned) [Example 10A-2], for which the pIC50 was greater than 7.00.

The same test, now with this note: rhSYK Activity, Table 33-A.
Turning to `Cc1cc(Nc2ncc(Cl)cn2)cc(-c2cnc(C3(O)CCC(C(=O)O)C(C)(C)C3)s2)c1` (single isomer, unassigned) [Example 33A-43], the pIC50 was greater than 7.00.

Regarding `Cc1cc(Nc2ncc(F)cn2)cc(-c2cnc(C3(O)CCC(C(=O)O)C(C)(C)C3)s2)c1` (single isomer, unassigned) [Example 33A-46], the pIC50 was 6.00 to 7.00.

Take `Cc1cc(Nc2ncc(F)cn2)cc(-c2cnc(C3(O)CCC(C(=O)O)C(C)(C)C3)s2)c1` (single isomer, unassigned) [Example 33A-47]: the pIC50 was greater than 7.00.

For the compound `COC(=O)C1CCC(O)(c2ncc(-c3cc(CO)cc(Nc4nccc(C(F)(F)F)n4)c3)s2)CC1(C)C` (single isomer, unassigned) [Example 33A-50], the pIC50 is greater than 7.00.

For the compound `CC1(C)CC(O)(c2ncc(-c3cc(CO)cc(Nc4nccc(C(F)(F)F)n4)c3)s2)CCC1C(=O)O` (single isomer, unassigned) [Example 33A-51], the pIC50 was greater than 7.00.

For the compound `CC1(C)CC(O)(c2ncc(-c3cc(Nc4nccc(C(F)(F)F)n4)cc(C(F)F)c3)s2)CCC1C(=O)O` (single isomer, unassigned) [Example 33A-57], the pIC50 was greater than 7.00.

Regarding `CC1(C)CC(O)(c2ncc(-c3cc(F)cc(Nc4nccc(C(F)(F)F)n4)c3)s2)CCC1C(=O)O` (single isomer, unassigned) [Example 33A-63], the pIC50 is greater than 7.00.

As to `CC1(C)CC(O)(c2ncc(-c3cccc(Nc4nccc(C(F)(F)F)n4)c3)s2)CCC1C(=O)O` (single isomer, unassigned) [Example 33A-66], the pIC50 is greater than 7.00.

On to `COc1ccnc(Nc2cc(C)cc(-c3cnc(C4(O)CCC(C(=O)O)C(C)(C)C4)s3)c2)n1` (single isomer, unassigned) [Example 33A-72], for which the pIC50 is greater than 7.00.

In the case of `Cc1cc(Nc2nccc(C(F)(F)F)n2)cc(-c2cnc(C3(O)CCC(C(=O)O)C(C)(C)C3C)s2)c1` (single isomer, unassigned) [Example 33A-77], the pIC50 is greater than 7.00.

The test is the same for the next values; noted with them: rhSYK Activity, Table 33B.
Take `Cc1cc(Nc2nccc(C(F)(F)F)n2)cc(-c2cnc(C3(O)CCC(CC(=O)O)C3)s2)c1` (single isomer, unassigned) [Example 33B-25]: the negative logarithm of the IC50 (pIC50) is greater than 7.00.

The test is the same for the next values; noted with them: rhSYK Activity, Table 33D.
Turning to `Cc1cc(Nc2nccc(C(F)(F)F)n2)cc(-c2cnc(C(C)(O)CCC(C)(C)C(=O)O)s2)c1` (single isomer, unassigned) [Example 33D-3], the pIC50 is greater than 7.00.

As to `Cc1cc(Nc2nccc(C(F)(F)F)n2)cc(-c2cnc(C(C)(O)c3ccc(C(=O)O)s3)s2)c1` (single isomer, unassigned) [Example 33D-21], the pIC50 was greater than 7.00.

Staying with this test, now noted: rhSYK Activity, Table 45.
In the case of `Cc1cc(Nc2nccc(C(F)(F)F)n2)cc(-c2cnc(C3(O)CCCN(C(=O)OC(C)(C)C)CC3)s2)c1` (single isomer, unassigned) [45-1], the pIC50 was 6.00 to 7.00.

Staying with this test, now noted: rhSYK Activity, Table 54D.
With `Cc1cc(Nc2nccc(C(F)(F)F)n2)cc(-c2cnc(C3(O)CCCN(C(=O)CC(N)=O)CC3)s2)c1` (single isomer, unassigned) [Example 54D-20], the pIC50 is greater than 7.00.

For the compound `Cc1cc(Nc2nccc(C(F)(F)F)n2)cc(-c2cnc(C3(O)CCCN(C(=O)CC(=O)O)CC3)s2)c1` (single isomer, unassigned) [Example 54D-25], the pIC50 was greater than 7.00.

`Cc1cc(Nc2nccc(C(F)(F)F)n2)cc(-c2cnc(C3(O)CCCN(C(=O)C(O)CO)CC3)s2)c1` (single isomer, unassigned) [Example 54D-28]: the pIC50 is greater than 7.00.

In the case of `Cc1cc(Nc2nccc(C(F)(F)F)n2)cc(-c2cnc(C3(O)CCCN(C(=O)c4cnn[nH]4)CC3)s2)c1` (single isomer, unassigned) [Example 54D-36], the pIC50 was greater than 7.00.

For `Cc1cc(Nc2nccc(C(F)(F)F)n2)cc(-c2cnc(C3(O)CCCN(C(=O)c4cnon4)CC3)s2)c1` (single isomer, unassigned) [Example 54D-38], the pIC50 is greater than 7.00.

In the case of `Cc1cc(Nc2nccc(C(F)(F)F)n2)cc(-c2cnc(C3(O)CCCN(C(=O)CCC(N)=O)CC3)s2)c1` (single isomer, unassigned) [Example 54D-41], the pIC50 was greater than 7.00.

Take `Cc1cc(Nc2nccc(C(F)(F)F)n2)cc(-c2cnc(C3(O)CCCN(C(=O)c4cnnn4C)CC3)s2)c1` (single isomer, unassigned) [Example 54D-50]: the pIC50 was greater than 7.00.

On to `Cc1cc(Nc2nccc(C(F)(F)F)n2)cc(-c2cnc(C3(O)CCCN(C(=O)Cn4ccnn4)CC3)s2)c1` (single isomer, unassigned) [Example 54D-52], for which the pIC50 was greater than 7.00.

`Cc1cc(Nc2nccc(C(F)(F)F)n2)cc(-c2cnc(C3(O)CCCN(C(=O)c4nnnn4C)CC3)s2)c1` (single isomer, unassigned) [Example 54D-57]: the pIC50 was greater than 7.00.

In the case of `Cc1cc(Nc2nccc(C(F)(F)F)n2)cc(-c2cnc(C3(O)CCCN(C(=O)Cc4nnn[nH]4)CC3)s2)c1` (single isomer, unassigned) [Example 54D-59], the pIC50 is greater than 7.00.

For the compound `CCOC(=O)CC(=O)N1CCCC(O)(c2ncc(-c3cc(C)cc(Nc4nccc(C(F)(F)F)n4)c3)s2)CC1` (single isomer, unassigned) [Example 54D-75], the pIC50 is greater than 7.00.

As to `Cc1cc(Nc2nccc(C(F)(F)F)n2)cc(-c2cnc(C3(O)CCCN(C(=O)C(C)(CO)CO)CC3)s2)c1` (single isomer, unassigned) [Example 54D-79], the pIC50 was greater than 7.00.

With `Cc1cc(Nc2nccc(C(F)(F)F)n2)cc(-c2cnc(C3(O)CCCN(C(=O)c4[nH]nnc4Cl)CC3)s2)c1` (single isomer, unassigned) [Example 54D-100], the pIC50 was greater than 7.00.

For `Cc1cc(Nc2nccc(C(F)(F)F)n2)cc(-c2cnc(C3(O)CCCN(C(=O)c4nn[nH]c4C(F)(F)F)CC3)s2)c1` (single isomer, unassigned) [Example 54D-107], the pIC50 was greater than 7.00.

For the compound `Cc1cc(Nc2nccc(C(F)(F)F)n2)cc(-c2cnc(C3(O)CCCN(C(=O)c4n[nH]c(C(F)(F)F)n4)CC3)s2)c1` (single isomer, unassigned) [Example 54D-109], the pIC50 was greater than 7.00.

Consider `Cc1cc(Nc2nccc(C(F)(F)F)n2)cc(-c2cnc(C3(O)CCCN(S(N)(=O)=O)CC3)s2)c1` (single isomer, unassigned) [Example 54D-116], for which the pIC50 is greater than 7.00.

With `Cc1cc(Nc2nccc(C(F)(F)F)n2)cc(-c2cnc(C3(O)CCCN(C(N)=O)CC3)s2)c1` (single isomer, unassigned) [Example 54D-119], the pIC50 is greater than 7.00.

In the case of `Cc1cc(Nc2nccc(C(F)(F)F)n2)cc(-c2cnc(C3(O)CCCN(C(=O)CO)CC3)s2)c1` (single isomer, unassigned) [Example 54D-122], the pIC50 is greater than 7.00.

With `Cc1cc(Nc2nccc(C(F)(F)F)n2)cc(-c2cnc(C3(O)CCCN(C(=O)c4nc[nH]n4)CC3)s2)c1` (single isomer, unassigned) [Example 54D-124], the pIC50 is greater than 7.00.
